Active and inactive are the calls of the source. The calls are words filed in the database; no cut-off is given here.
Legend:
HepG2 [1] = test: Cytotoxicity against human HepG2 cells assessed as reduction in cell viability up to 100 uM after 48 hrs by MTT assay; type: cell-based; conditions: hepg2, 48 h
[2] = biological target: Acetylcholinesterase (Homo sapiens) (UniProt P22303); test: Inhibition of AChE (unknown origin) assessed as residual activity at 50 uM using acetylthiocholine chloride as substrate measured for 10 mins (reference value: 100 +/- 1.2%)
Chain of Acetylcholinesterase (Homo sapiens) (P22303 whole entry): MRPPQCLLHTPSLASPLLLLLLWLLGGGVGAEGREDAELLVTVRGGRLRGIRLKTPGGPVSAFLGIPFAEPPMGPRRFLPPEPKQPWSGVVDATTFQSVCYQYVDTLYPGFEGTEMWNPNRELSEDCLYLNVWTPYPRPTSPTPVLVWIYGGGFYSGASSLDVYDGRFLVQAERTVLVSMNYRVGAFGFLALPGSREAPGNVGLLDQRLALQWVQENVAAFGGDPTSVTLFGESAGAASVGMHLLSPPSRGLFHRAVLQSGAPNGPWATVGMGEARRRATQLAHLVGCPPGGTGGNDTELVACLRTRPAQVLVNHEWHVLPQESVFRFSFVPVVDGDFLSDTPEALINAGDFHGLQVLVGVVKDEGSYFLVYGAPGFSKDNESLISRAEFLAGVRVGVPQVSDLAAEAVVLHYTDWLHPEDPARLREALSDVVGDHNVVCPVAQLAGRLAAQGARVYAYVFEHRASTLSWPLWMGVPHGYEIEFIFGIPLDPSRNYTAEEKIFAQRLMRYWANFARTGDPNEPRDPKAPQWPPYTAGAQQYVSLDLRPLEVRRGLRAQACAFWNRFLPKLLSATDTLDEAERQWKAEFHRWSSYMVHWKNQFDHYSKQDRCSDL

HEK293 [3] = test: Cytotoxicity against HEK293 cells assessed as morphological alteration up to 100 uM after 48 hrs by MTT assay; type: cell-based; conditions: human, hek293, 48 h
HepG2 [4] = test: Inhibition of HAT in human HepG2 cells assessed as decrease in histone H3 acetylation at Lys27 residues at 100 uM incubated for 48 hrs by Western blot analysis relative to control; type: cell-based
HEK293 [5] = test: Cytotoxicity against HEK293 cells assessed as reduction in cell viability at 500 uM after 24 to 48 hrs by MTT assay relative to control; type: cell-based; conditions: human, hek293, 500 µM
HepG2 [6] = test: Inhibition of HAT in human HepG2 cells assessed as decrease in histone H3 acetylation at Lys27 residues at 100 uM incubated for 48 hrs in presence of TSA by Western blot analysis; type: cell-based
HEK293 [7] = test: Inhibition of HAT in HEK293 cells assessed as decrease in histone H3 acetylation at Lys27 residues at 100 uM incubated for 48 hrs by Western blot analysis relative to control; type: cell-based; conditions: Homo sapiens
HepG2 [8] = test: Inhibition of esterase in human hepG2 cells at 100 uM after 1 hr by calcein-AM dye-based fluorescence assay relative to control; type: cell-based
HepG2 [9] = test: Cytotoxicity against human HepG2 cells assessed as reduction in cell viability at 500 uM after 24 to 48 hrs by MTT assay relative to control; type: cell-based; conditions: hepg2, 500 µM
HepG2 [10] = test: Cytotoxicity against human HepG2 cells assessed as morphological alteration up to 100 uM after 48 hrs by MTT assay; type: cell-based; conditions: hepg2, 48 h
HEK293 [11] = test: Cytotoxicity against HEK293 cells assessed as reduction in cell viability up to 100 uM after 48 hrs by MTT assay; type: cell-based; conditions: human, hek293, 48 h
[12] = biological target: Acetylcholinesterase (Homo sapiens) (UniProt P22303); test: Inhibition of AChE (unknown origin) using acetylthiocholine chloride as substrate measured for 10 mins
[13] = biological target: ATP-binding cassette sub-family C member 6 (Homo sapiens, UniProt O95255); test: Inhibition of ABCC6 (unknown origin) expressed in HEK293 cells assessed as increase in doxorubicin efflux at 100 uM after 30 mins by fluorescence assay; type: cell-based; conditions: hek293, 0.5 h
Chain of ATP-binding cassette sub-family C member 6 (O95255 whole entry): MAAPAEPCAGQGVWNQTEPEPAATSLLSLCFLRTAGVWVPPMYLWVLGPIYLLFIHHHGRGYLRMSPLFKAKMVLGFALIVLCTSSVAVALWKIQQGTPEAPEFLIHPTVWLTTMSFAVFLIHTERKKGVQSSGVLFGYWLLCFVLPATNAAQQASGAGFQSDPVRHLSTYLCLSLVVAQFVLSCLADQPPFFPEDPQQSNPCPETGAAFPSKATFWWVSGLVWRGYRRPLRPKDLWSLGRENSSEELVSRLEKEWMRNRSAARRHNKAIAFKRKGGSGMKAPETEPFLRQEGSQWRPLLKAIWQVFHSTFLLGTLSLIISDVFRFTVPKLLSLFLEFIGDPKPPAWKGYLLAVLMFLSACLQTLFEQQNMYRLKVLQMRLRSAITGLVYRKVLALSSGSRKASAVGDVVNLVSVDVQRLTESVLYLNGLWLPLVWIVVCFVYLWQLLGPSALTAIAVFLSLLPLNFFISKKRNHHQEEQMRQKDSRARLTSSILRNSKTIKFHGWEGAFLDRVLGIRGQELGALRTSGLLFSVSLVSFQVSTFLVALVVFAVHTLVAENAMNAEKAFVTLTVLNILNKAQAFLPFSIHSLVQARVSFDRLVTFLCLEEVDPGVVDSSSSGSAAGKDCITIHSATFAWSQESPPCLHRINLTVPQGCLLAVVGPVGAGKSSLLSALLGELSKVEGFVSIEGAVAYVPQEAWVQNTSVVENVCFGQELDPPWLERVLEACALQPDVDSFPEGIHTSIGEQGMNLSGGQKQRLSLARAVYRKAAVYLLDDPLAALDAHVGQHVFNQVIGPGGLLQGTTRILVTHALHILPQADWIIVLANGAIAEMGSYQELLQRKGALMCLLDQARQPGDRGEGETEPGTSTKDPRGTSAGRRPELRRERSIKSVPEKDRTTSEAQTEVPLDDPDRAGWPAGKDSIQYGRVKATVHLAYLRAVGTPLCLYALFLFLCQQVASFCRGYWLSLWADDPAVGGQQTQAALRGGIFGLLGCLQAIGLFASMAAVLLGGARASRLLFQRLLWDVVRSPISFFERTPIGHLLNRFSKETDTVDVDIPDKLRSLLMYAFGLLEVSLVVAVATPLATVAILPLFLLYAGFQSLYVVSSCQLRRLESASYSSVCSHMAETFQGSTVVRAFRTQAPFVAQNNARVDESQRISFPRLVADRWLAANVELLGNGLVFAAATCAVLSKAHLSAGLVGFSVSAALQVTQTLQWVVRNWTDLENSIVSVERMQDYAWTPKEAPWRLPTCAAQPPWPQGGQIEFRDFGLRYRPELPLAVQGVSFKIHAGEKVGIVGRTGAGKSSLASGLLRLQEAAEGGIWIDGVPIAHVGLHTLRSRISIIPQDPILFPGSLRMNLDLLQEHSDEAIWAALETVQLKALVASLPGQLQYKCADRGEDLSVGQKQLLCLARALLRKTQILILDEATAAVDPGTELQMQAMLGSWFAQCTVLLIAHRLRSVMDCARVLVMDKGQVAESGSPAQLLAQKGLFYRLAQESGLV

[14] = biological target: Acetylcholinesterase (Homo sapiens) (UniProt P22303); test: Inhibition of AChE (unknown origin) assessed as residual activity at 100 uM using acetylthiocholine chloride as substrate measured for 10 mins (reference value: 100 +/- 1.2%)
[15] = biological target: Acetylcholinesterase (Homo sapiens) (UniProt P22303); test: Inhibition of AChE (unknown origin) assessed as residual activity at 10 uM using acetylthiocholine chloride as substrate measured for 10 mins (reference value: 100 +/- 1.2%)
HEK293 [16] = test: Inhibition of esterase in HEK293 cells at 100 uM after 1 hr by calcein-AM dye-based fluorescence assay relative to control; type: cell-based; conditions: Homo sapiens
HEK293 [17] = test: Inhibition of HAT in HEK293 cells assessed as decrease in histone H3 acetylation at Lys27 residues at 100 uM incubated for 48 hrs in presence of TSA by Western blot analysis; type: cell-based; conditions: Homo sapiens

CC/C=C\COC1(c2ccc(Cl)cc2)SC=C(C)n2c1noc2=O (configuration not stated)
Activity (HepG2 [1]): Non-Toxic | Activity [2]: 61% | Activity (HEK293 [3]): Non-Toxic | inhibition (HepG2 [4]): 56% | Activity (HEK293 [5]): 50% | inhibition (HepG2 [6]): Active | inhibition (HEK293 [7]): 80% | inhibition (HepG2 [8]): 50% | Activity (HepG2 [9]): 50% | Activity (HepG2 [10]): Non-Toxic | Activity (HEK293 [11]): Non-Toxic | inhibition [12]: Dose-dependent effect | inhibition (INH) [13]: Active | Activity [14]: 56% | Activity [15]: 80% | inhibition (HEK293 [16]): 60% | inhibition (HEK293 [17]): Active
